Experimental data from ChEMBL document CHEMBL5625245, “Novel ProTide prodrugs of 5-fluoro-2'-deoxyuridine for the treatment of liver cancer” (Eur J Med Chem, 2023).
Activity calls are given as the source filed them. No cut-off for these calls is given here.

Assays:
Bel-7402 [1] = assay: Antiproliferative activity against human Bel-7402 cells assessed as reduction in cell viability at 20 uM measured after 48 hrs by MTT assay; type: functional, cell-based
Bel-7402 [2] = assay: Antiproliferative activity against human Bel-7402 cells assessed as reduction in cell viability at 20 uM measured after 48 hrs by MTT assay relative to control; type: functional
HepG2 [3] = assay: Antiproliferative activity against human HepG2 cells assessed as reduction in cell viability at 20 uM measured after 48 hrs by MTT assay relative to control; type: functional
[4] = Antiproliferative activity against human NCM460 cells assessed as reduction in cell viability measured after 48 to 72 hrs by MTT assay; type: toxicity, cell-based
[5] = Toxicity in orthotopic mouse assessed as effect on liver at 60 mg/kg, iv administered twice daily for 18 days by H and E staining based analysis; type: organism-based; conditions: in vivo, 432 h, time 18 day
Bel-7402 [6] = assay: Antiproliferative activity against human Bel-7402 cells assessed as reduction in cell viability at 20 uM measured after 48 to 72 hrs in presence of 5-Fluorouracil by MTT assay; type: functional, cell-based; conditions: time 48-72 hrs
HepG2 [7] = assay: Antiproliferative activity against human HepG2 cells assessed as reduction in cell viability measured after 48 to 72 hrs by MTT assay; type: functional, cell-based
[8] = Toxicity in orthotopic mouse assessed as effect on body weight at 60 mg/kg, iv administered twice daily for 18 days; type: organism-based; conditions: in vivo, 432 h, time 18 day
[9] = Toxicity in orthotopic mouse assessed as effect on lung at 60 mg/kg, iv administered twice daily for 18 days by H and E staining based analysis; type: organism-based; conditions: in vivo, 432 h, time 18 day
HepG2 [10] = assay: Antitumor activity against human HepG2 cells xenografted in mouse model assessed as tumor growth inhibition at 150 mg/kg/day for 7 days relative to control; type: functional; conditions: HepG2, 168 h, time 7 day, read-out: TGI
[11] = Toxicity in orthotopic mouse assessed as effect on spleen at 60 mg/kg, iv administered twice daily for 18 days by H and E staining based analysis; type: organism-based; conditions: in vivo, 432 h, time 18 day
[12] = Toxicity in orthotopic mouse assessed as effect on heart at 60 mg/kg, iv administered twice daily for 18 days by H and E staining based analysis; type: organism-based; conditions: in vivo, 432 h, time 18 day
HepG2 [13] = assay: Antitumor activity against human HepG2 cells xenografted in orthotopic mouse model assessed as tumor growth inhibition at 60 mg/kg, iv administered twice daily for 18 days in presence of 5-Fluorouracil relative to control; type: functional; conditions: HepG2, 432 h, time 18 day, read-out: TGI
Bel-7402 [14] = assay: Antiproliferative activity against human Bel-7402 cells assessed as reduction in cell viability measured after 48 to 72 hrs by MTT assay; type: functional, cell-based
HepG2 [15] = assay: Antitumor activity against human HepG2 cells xenografted in orthotopic mouse model assessed as average number of tumor at 60 mg/kg, iv administered twice daily for 18 days in presence of 5-Fluorouracil (reference value: 49+/3.6 mM); type: functional; conditions: time 18 day
[16] = Toxicity in orthotopic mouse assessed as effect on kidney at 60 mg/kg, iv administered twice daily for 18 days by H and E staining based analysis; type: organism-based; conditions: in vivo, 432 h, time 18 day
[17] = Toxicity in orthotopic mouse assessed as effect on drug tolerance at 60 mg/kg, iv administered twice daily for 18 days; type: organism-based; conditions: in vivo, 432 h, time 18 day
[18] = Toxicity in orthotopic mouse assessed as change in liver weight at 60 mg/kg, iv administered twice daily for 18 days; type: organism-based; conditions: in vivo, 432 h, time 18 day
[19] = Antiproliferative activity against human L02 cells assessed as reduction in cell viability measured after 48 to 72 hrs by MTT assay; type: toxicity, cell-based
HepG2 [20] = assay: Antiproliferative activity against human HepG2 cells assessed as reduction in cell viability at 20 uM measured after 48 to 72 hrs in presence of 5-Fluorouracil by MTT assay; type: functional, cell-based; conditions: time 48-72 hrs
HepG2 [21] = assay: Antitumor activity against human HepG2 cells xenografted in mouse model assessed as tumor growth inhibition at 100 mg/kg/day for 7 days relative to control; type: functional; conditions: HepG2, 168 h, time 7 day, read-out: TGI

| IC50 (HepG2 [7]) | IC50 (Bel-7402 [14]) | SMILES | Activity (Bel-7402 [2]) | Activity (HepG2 [3]) | IC50 [4] | IC50 [19] | other results |
| --- | --- | --- | --- | --- | --- | --- | --- |
| – | – | CC(C)OC(=O)[C@H](C)N[P@](=O)(OC[C@H]1O[C@@H](n2cc(F)c(=O)[nH]c2=O)C[C@@H]1OC(=O)[C@@H](N)CC(=O)O)Oc1ccccc1 | – | – | – | – | Activity (Bel-7402 [1]): Active |
| – | – | CC(C)C[C@H](NC(=O)CN)C(=O)O[C@H]1C[C@H](n2cc(F)c(=O)[nH]c2=O)O[C@@H]1CO[P@@](=O)(N[C@@H](C)C(=O)OC(C)C)Oc1ccccc1 | 50% | 50% | – | – | – |
| 28.7 µM | 7.18 µM | CC(C)OC(=O)[C@H](C)N[P@](=O)(OC[C@H]1O[C@@H](n2cc(F)c(=O)[nH]c2=O)C[C@@H]1OC(=O)[C@H](Cc1ccccc1)NC(=O)OC(C)(C)C)Oc1ccccc1 | >60% | – | > 100 µM | > 100 µM | – |
| – | – | CC(C)OC(=O)[C@H](C)N[P@](=O)(OC[C@H]1O[C@@H](n2cc(F)c(=O)[nH]c2=O)C[C@@H]1OC(=O)[C@H](Cc1ccccc1)NC(=O)[C@@H](N)C(C)C)Oc1ccccc1 | 50% | 50% | – | – | – |
| 0.59 µM | 0.73 µM | Cc1ccccc1CO[P@](=O)(N[C@@H](C)C(=O)OC(C)C)OC[C@H]1O[C@@H](n2cc(F)c(=O)[nH]c2=O)C[C@@H]1O | – | – | > 100 µM | > 100 µM | – |
| 19.9 µM | 3.77 µM | CC(C)OC(=O)[C@H](C)N[P@](=O)(OC[C@H]1O[C@@H](n2cc(F)c(=O)[nH]c2=O)C[C@@H]1OC(=O)[C@H](CC(=O)OC(C)(C)C)NC(=O)OC(C)(C)C)Oc1ccccc1 | >60% | – | > 100 µM | > 100 µM | – |
| – | – | CC(C)OC(=O)[C@H](C)N[P@](=O)(OC[C@H]1O[C@@H](n2cc(F)c(=O)[nH]c2=O)C[C@@H]1OC(=O)[C@H](C)NC(=O)CNC(=O)OC(C)(C)C)Oc1ccccc1 | 50% | 50% | – | – | – |
| – | – | CC(C)OC(=O)[C@H](C)N[P@](=O)(OC[C@H]1O[C@@H](n2cc(F)c(=O)[nH]c2=O)C[C@@H]1OC(=O)OC(C)(C)C)Oc1ccccc1 | 50% | 50% | – | – | – |
| – | – | CC(C)C[C@H](N)C(=O)O[C@H]1C[C@H](n2cc(F)c(=O)[nH]c2=O)O[C@@H]1CO[P@@](=O)(N[C@@H](C)C(=O)OC(C)C)Oc1ccccc1 | – | – | – | – | Activity (Bel-7402 [1]): Active |
| 15.2 µM | 9.11 µM | CCC(C)[C@H](N)C(=O)O[C@H]1C[C@H](n2cc(F)c(=O)[nH]c2=O)O[C@@H]1CO[P@@](=O)(N[C@@H](C)C(=O)OC(C)C)Oc1ccccc1 (some centres undefined) | – | >50% | > 100 µM | > 100 µM | Activity (Bel-7402 [1]): Active |

| SMILES | IC50 (HepG2 [7]) | IC50 (Bel-7402 [14]) | Activity (Bel-7402 [2]) | Activity (HepG2 [3]) | IC50 [4] | IC50 [19] | other results |
| --- | --- | --- | --- | --- | --- | --- | --- |
| CC(C)OC(=O)[C@H](C)N[P@](=O)(OC[C@H]1O[C@@H](n2cc(F)c(=O)[nH]c2=O)C[C@@H]1O)Oc1ccccc1 | 36.2 µM | 18.2 µM | – | – | > 100 µM | > 100 µM | Activity [5]: Non-Toxic; Activity (Bel-7402 [6]): Active; Activity [8]: Non-Toxic; Activity [9]: Non-Toxic; inhibition in vivo at 150 mg/kg/day (HepG2 [10]): 68%; Activity [11]: Non-Toxic; Activity [12]: Non-Toxic; inhibition in vivo at 60 mg/kg (HepG2 [13]): 57.1%; tumour count (HepG2 [15]): 21; Activity [16]: Non-Toxic; Activity [17]: Non-Toxic; Activity [18]: Toxic; Activity (HepG2 [20]): Active; inhibition in vivo at 100 mg/kg/day (HepG2 [21]): 52% |
| C[C@H](N[P@](=O)(OC[C@H]1O[C@@H](n2cc(F)c(=O)[nH]c2=O)C[C@@H]1O)Oc1cccc2ccccc12)C(=O)OCc1ccccc1 | > 100 µM | > 100 µM | <10% | <10% | > 100 µM | > 100 µM | – |
